Experimental data from patent US10201558B2, “Compositions of selenoorganic compounds and methods of use thereof” (Alltech, Inc., priority 2014, dated 2019).

System: primary fetal rat neurons
Assay: Cell survival of primary cortical neurons (cell counts)
Type: cell-based
Settings: 24 hours, Control 100 ± 1.57, mixture: 30 ppb of the element from each compound; for Viable Cell Number (Mean + SEM, n = 6): 150 ppb sulfur compound(s); for Viable Cell Number (Mean ± SEM, n = 6): 150 ppb selenium compound(s)
Procedure: For primary neurons, dissociated primary cortical neuron cultures were established from E-18 rat embryos as previously described (Lovell et al., Free Radic. Biol. Med. 2000; Lovell et al., Neurobiol. Aging 2001). Studies were carried out on cells 7 days in culture by switching to Locke's solution consisting of 1 mL of 154 mM NaCl, 5.6 mM KCl, 2.3 mM CaCl2, 1.0 mM MgCl2, 3.6 mM NaHCO3, 10 mM glucose, 5 mM HEPES (pH 7.2) with 10 mg/L gentamicin sulfate. Primary neurons were treated for 24 hours in Locke's solution with the indicated selenium and sulfur compounds in Table 5. Cell counts were performed to measure cell survival/toxicity.
The effects of the selenium and sulfur compounds, identified as components of water extracts of selenium-enriched yeast, on neuronal cell survival was also tested. Primary neurons isolated from fetal rat brain were incubated with chemically synthesized individual selenium and sulfur compounds that were identified as components of water extracts of selenium-enriched yeast (Table 5). In this case, the elemental concentration of each compound identified in Table 5 was 150 ppb and, where mixtures were used, the 150 ppb treatment was made up of 30 ppb of the element from each of the five compounds in question.

CSC[C@H](N)C(=O)O [F, L-Methylcysteine]
Viable Cell Number (Mean + SEM, n = 6): 96.48 ± 3.89

CSC[C@H]1O[C@@H](n2cnc3c(N)ncnc32)[C@H](O)[C@@H]1O [Compound H, 5′-deoxy-5′-methylthioadenosine]
Viable Cell Number (Mean + SEM, n = 6): 100.24 ± 9.45

CSCC[C@H](N)C(=O)O [G, L-methionine]
Viable Cell Number (Mean + SEM, n = 6): 103.84 ± 4.98

C[Se]C[C@H](N)C(=O)O [A, L-Methylselenocysteine]
Viable Cell Number (Mean ± SEM, n = 6): 94.45 ± 1.72

C[Se]CC[C@H](N)C(=O)O [B, L-Selenomethionine]
Viable Cell Number (Mean ± SEM, n = 6): 90.59 ± 6.82
